Experimental data: patent publication US20020111314A1, “Novel stimulation of gene expression and protein synthesis of heat shock protein 72/73 (Hsp 70)” (The Trustees of Columbia University, priority 1995, published 2002)
Entries after “also recorded” stand apart in the source; their conditions may differ. Peptide text beside a SMILES is read from it.

Assays:
Hsp70 = Hsp70 induction in HepG2 cells ([3H]-leucine labeling, denaturing immunoprecipitation); assay type: cell-based, human; conditions: HepG2
Description: HepG2 cells were grown up to 95% confluence and then preincubated for 4 hours in a 37° C. incubator with serum-free minimum essential medium (MEM), followed by radiolabeling with 3H-leucine (150 μCi/ml) dissolved in serum-free, leucine-free medium. Preincubation and labeling medium each contained 1.5% bovine serum albumin (BSA) plus different concentrations of ALLN as indicated. After labeling, cells were collected and lysed, and Hsp70 was immunoprecipitated under denaturing conditions as described under Experimental Details. Cell lysates containing an equal amount of TCA-insoluble radioactivity were used for immunoprecipitation. (A): The immunoprecipitates were analyzed by sodium dodecyl sulfate-polyacryamide gel electrophoresis (SDS-PAGE) and fluorography. Numbers on the left-hand side denote molecular markers. (B): The Hsp70 radioactivity was quantitated by scintillation counting and plotted. All the values were presented as means±SD from three individual culture dishes.
(§1) FIGS. 3A-3B: Effects of the other protease inhibitors on Hsp70 biosynthesis in HepG2 cells. HepG2 cells were preincubated in serum-free MEM containing either 1.5% BSA alone (Control), or BSA plus 40 μg/ml of ALLN, 40 μg/ml of ALLM, 50 μg/ml of leupeptin, 50 μg/ml of pepstatin A, 25 μg/ml of E-64d, 1 mM of phenylmethylsulfonyl fluoride (PMSF), 100 KIU/ml of apotinin, 1 mM of Benzamidine (Benz), 200 μM of calpain inhibitor peptide (CIP). Radiolabeling (in the presence of protease inhibitors), lysis and immunoprecipitation were performed as described in FIG. 1. The Hsp70 specific radioactivity (A) and the amount of total incorporated radioactivity (TCA-cpm) (B) were compared with each other. All the values were presented as the mean±SD from three individual culture dishes.
FIGS. 9A-9B: Effects of proteasome inhibitors on Hsp70 induction. HepG2 cells were preincubated with the proteasome inhibitors MG132 at a final concentration of either 10 μM or 30 μM (A), or lactacystin at 10 μM (B) for 4 hours under conditions described in FIG. 3. These cells were then subjected to radiolabeling (30 min), cell lysis, and immunoprecipitation with anti-Hsp70 antibody. The experiments with MG132 (A) were repeated twice; the effects of lactacystin (B) were studied in triplicate culture dishes.
ALLN, leupeptin, mouse anti-human Hsp72/73 monoclonal antibody, a secondary antibody conjugated with horseradish peroxidase (HRP) (goat anti-rabbit immunoglubin G [IgG]), and rabbit anti-rat IgG antibody were from Boehringer Mannheim Co. Anti-Human Hsp25 and anti-human Hsp60 monoclonal antibodies, ALLM, Calpain inhibitor peptide (CIP), dimethyl sulfoxide (DMSO) and dithiothreitol (DTT) were from Sigma. Human Hsp70 oligonucleotide probe was from Oncogene Science. This oligonucleotide was ^32P labeled at the 5′-end by T4 Kinase, which was from Biolabs. ^32P was from ICN Pharmaceutical Inc. L-[4,5-^3H] leucine was from Amersham Co. Anti-human Bip (immunoglobulin heavy chain binding protein, also called Grp78), anti-human Hsp27, anti-human Hsp60, and anti-human Hsp90 monoclonal antibodies were from Stress Genes. Anti-human Hsp86 and Hsp104 antibodies were from Affinity Bioreagent Inc. Nitrocellular transfer and immobilization membranes were from Schleicher & Schuell, Keene, N.H. RNA extraction kits were from Biotect, Tex. The polyclonal antibody against the human HSF1 protein was a generous gift from Dr. Carl Wu of the National Institute of Health (Rabindran, et al., 1993). Ethylene glycol bis(succunimidylsuccinate) (EGS) was from Pierce. Cbz-leucyl-leucyl-leucinal (MG132) was a gift of Dr. H. Ploegh at the Massachusetts Institute of Technology. All the other tissue culture supplies and chemicals were obtained from supplies as previously described (Dixon, et al., 1991). The HepG2 cell culture conditions were maintained as previously described (Dixon, et al., 1991).

[1] = system: cysteine proteases, calpain and cathepsin B; conditions: Rock, et al., 1994; cited from earlier work
proteasomes = conditions: Rock, et al., 1994; cited from earlier work
HepG2 cells = assay: Total incorporation of radiolabel (TCA cpm) as indicator of cell toxicity in HepG2 cells; assay type: cell-based, human; conditions: MG132 10 or 30 μM, lactacystin 10 μM, data not shown
Description: as §1
Preincubation and labeling media each contained either 1.5% bovine serum albumin (BSA) alone, or BSA plus ALLN (40 μg/ml except as otherwise indicated), or BSA plus other protease inhibitors at concentrations indicated in the figure legends. At the indicated times, cells were removed from the 37° C. incubator and placed on ice, washed with cold phosphate-buffer saline (PBS) twice and lysed with lysis buffer containing 1% Triton X-100 (TX100), 1% deoxycholic acid (DOC) and 0.1% SDS in PBS containing proteinase inhibitors: 2 mM phenylmethylsulfonyl fluoride (PMSF); 2 μg/ml ALLN; 2 μg/ml leupeptin; and 2 μg/ml aprotinin. After a 30 min. incubation with lysis buffer at 4° C., the lysates were centrifuged at 14,000 g in a microcentrifuge for 5 min., and the supernatants were adjusted to 1% SDS concentration and boiled for 5 min. to denature the proteins. 1% TX100 was then added to dilute the lysates to a final concentration of 0.1% SDS. Cell lysates containing equal amounts of trichloroacetic acid (TCA)-insoluble radioactivity were used for immunoprecipitations by incubating with individual monoclonal antibody (1 μg/ml) for 2.5 hours at 4° C. Protein-A Sepharose 4B was added afterwards and the lysates incubated for another 1.5 hours at 4° C. to collect the immunocomplexes. […]

[2] = system: cysteine protease, serine protease, trypsin or chymotrypsin; conditions: even upon extended exposure; Ward 1995, Fenteany 1995; cited from earlier work

| Structure (SMILES) | induction of Hsp70 by protease inhibitors (FIG. 3A) (Hsp70; 4 h pre-treatment, ALLN 40, ALLM 40, leupeptin 50, pepstatin A 50, E-64d 25 μg/ml, PMSF 1 mM, aprotinin 100 KIU/ml) | activities against calpain and cathepsin B [1] | inhibition of proteasomes (proteasomes) | induction of Hsp70 levels by proteasome inhibitors (FIG. 9) (Hsp70; 4 hours, MG132 10 μM or 30 μM, lactacystin 10 μM, 30 min labeling) | toxicity to the cells (TCA-precipitable radioactivities) (HepG2 cells) | effect on cysteine protease, serine protease, trypsin or chymotrypsin [2] |
| --- | --- | --- | --- | --- | --- | --- |
| CSCC[C@@H](C=O)NC(=O)[C@H](CC(C)C)NC(=O)[C@H](CC(C)C)NC(C)=O [ALLM, N-acetyl-leucyl-leucyl-methioninal] (Ac-Leu-Leu-Met-aldehyde) | significantly induce; also recorded: less ability to induce Hsp70 levels | significant activities | potent inhibitors |  |  |  |
| CC(=O)N[C@@H](CSC(=O)[C@]1([C@@H](O)C(C)C)NC(=O)[C@H](C)[C@@H]1O)C(=O)O [lactacystin] |  |  |  | induced Hsp70 levels dramatically | without obvious toxicity | no detectable effect |
